In US20240115704A1, “TREATMENT OF CANCER WITH NK CELLS AND A CD38-TARGETED ANTIBODY” (Artiva Biotherapeutics, Inc., priority 2021, published 2024):

Legend:
Daudi = experiment: Cytotoxicity of steroid treated AB-101 cells against Daudi; format: cell-based; settings: 48 hours; particularly when combined with 500 IU/mL of IL-2; 5:1 E:T
K562 = experiment: Cytotoxicity of steroid treated AB-101 cells against K562; format: cell-based; settings: 5:1 E:T
NCI-H929 = experiment: Cytotoxicity of steroid treated AB-101 cells against NCI-H929; format: cell-based; settings: 48 hours; particularly when combined with 500 IU/mL of IL-2; 5:1 E:T
[1] = tested on: K562, Daudi, RPMI-8226, and NCI-H929; experiment: Impact of steroids on AB-101+daratumumab ADCC; settings: 48 hours steroid treatment; 5:1 E:T; with daratumumab
[2] = tested on: CD38+ multiple myeloma cell line MM.1S; experiment: Daratumumab titration, ADCC by AB-101 cells against MM.1S; format: cell-based; settings: AB-101 at 5:1 E:T, 4 hours
Description: (§1) After 4 hours on co-culture, the samples were analyzed by flow cytometry.

[3] = tested on: Burkitt's lymphoma cell line Daudi; experiment: Complement fixation assay (CDC), assay control tumor line; format: cell-based; settings: human complement serum; lowest concentration tested
Source text: Burkitt's lymphoma cell line Daudi was included as an assay control.

CD38− cell line K562 = experiment: Daratumumab titration, cytotoxicity of AB-101 cells against K562; format: cell-based; settings: AB-101 at 5:1 E:T, 4 hours
Description: as §1

Q: `C[C@@H]1C[C@H]2[C@@H]3CCC4=CC(=O)C=C[C@]4(C)[C@@]3(F)[C@@H](O)C[C@]2(C)[C@@]1(O)C(=O)CO` [Dexamethasone, (8S,9R,10S,11S,13S,14S,16R,17R)-9-fluoro-11,17-dihydroxy-17-(2-hydroxyacetyl)-10,13,16-trimethyl-6,7,8,11,12,14,15,16-octahydrocyclopenta[a]phenanthren-3-one] was tested. Which “basal cytotoxicity of steroid treated AB-101 cells” value (shortened to “basal cytotoxicity”) (Daudi) did it give?
A: The value was “enhanced”.

Q: What about the “basal cytotoxicity” value (K562; 0.1, 1, 10 μM for 48 hours, all concentrations tested, with the exception of one cell lot) of the same compound?
A: The value was “reduced”.

Q: And the “cytotoxicity of steroid treated AB-101 cells with 500 IU/ml of IL-2” value (K562; 500 IU/ml IL-2 during steroid treatment)?
A: The value was “restored cytotoxicity”.

Q: And the “basal cytotoxicity” value (NCI-H929)?
A: The value was “enhanced”.

Q: What about the “ADCC potential of steroid treated AB-101 cells” value [1] of the same compound?
A: The value was “did not abolish”.

Q: What does the source list for “daratumumab: mAb that targets CD38, approved for multiple myeloma”?
A: ADCC compared to IgG1 control antibodies [2]: elicited ADCC; concentration of daratumumab at which lysis reached saturation [3]: ≤ 0.41 µg/mL; cytotoxicity of AB-101 cells, daratumumab vs IgG control (CD38− cell line K562): no change in cytotoxicity
